Results published in patent US11512111B2, “Yeats inhibitors and methods of use thereof” (The University of Hong Kong, priority 2017, dated 2022).
pIC50, pKd: −log10 of the molar value. Residues, ends and D or L forms follow the SMILES beside them. *: point of attachment. Oxazole(5-CO) = O=C(c1cnco1)*

Assays:
AF9 YEATS domain [1] = biological target: T1, AF9 YEATS domain (Homo sapiens, UniProt P42568); assay: Photo-cross-linking-based competition assay (photoaffinity probe, click chemistry, in-gel fluorescence); format: binding; details: for pIC50: competition with photoaffinity probe, in-gel fluorescence
T1 construct: His-AF9 (1-138); His (N); made in house; host or cells: E. coli Rosetta
T1 sequence (P42568 1-138): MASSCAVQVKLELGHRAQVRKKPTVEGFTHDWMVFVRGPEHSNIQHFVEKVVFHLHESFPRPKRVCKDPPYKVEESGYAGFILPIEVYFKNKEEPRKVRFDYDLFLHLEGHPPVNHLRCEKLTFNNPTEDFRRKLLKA
Procedure: Mobile phase used were water with 0.1% trifluoroacetic acid (buffer A) and 90% acetonitrile in water with 0.1% trifluoroacetic acid (buffer B). The purity (>95%) and identity of peptides were confirmed by LC-MS. The inhibitory activities of the inhibitors were determined by a photo-cross-linking-based competition assay. […] The reactions were incubated for 1 h at r.t . . . . The reactions were quenched by adding 5 volumes of ice-cold acetone and placed at −20° C. overnight to precipitate proteins. After protein precipitation, samples were centrifuged at 6000×g for 5 min at 4° C. The supernatant was discarded and the pellet was washed with ice-cooled methanol twice and air-dried for 10 min. […] Samples were then resolved by SDS-PAGE. The labeled proteins were visualized by scanning the gel on a Typhoon 9410 variable mode imager (excitation 532 nm, emission filter 580 nm). A photo-cross-linking based method was used in this study to estimate inhibitory activity (FIG. 28). This method requires the use of a photoaffinity probe. The probe (probe 1 (SEQ ID NO:48), see below) is derived from a crotonylated peptide, ligand of the protein, carrying a photo-cross-linker and a terminal alkyne as bioorthogonal. The YEATS domain is incubated and bound to the probe through Kcr-dependent recognition. Upon UV-irradiation, the photo-cross-linker is activated and rapidly cross-linked to the protein, converting the non-covalent protein-probe interaction into a covalent linkage. The probe-labeled protein is subsequently conjugated to an azide-functionalized fluorescence dye (for example, rhodamine-N3, Rho-N3) via Cu(I)-catalyzed azide-alkyne cycloaddition (CuAAC, or “click” chemistry). After SDS-PAGE, the protein can be visualized by in-gel fluorescence scanning. If photo-cross-linking of the YEATS domain with photoaffinity probe is performed in the presence of an inhibitor, which occupies the Kcr binding pocket of the YEATS domain and thus inhibits the protein-probe interaction, the percentage of the YEATS domain in the sample that is labeled by the probe will be reduced. The in-gel fluorescence intensity detected will also be decreased. By varying the concentration of inhibitor added in the sample and quantifying the resulting fluorescence intensities, a competition curve of the inhibitor toward the protein-probe interaction will be obtained, which can be used to estimate the IC50 value. Due to the covalent nature of photo-cross-linking, weak protein-protein interactions can be captured and eventually visualized. The protein concentration used in the assay can be as low as several nanograms per microliter, while the fluorescence signal can still be robustly detected and quantified.

ENL YEATS domain [2] = biological target: T2, ENL YEATS domain (Homo sapiens, UniProt Q03111); assay: Photo-cross-linking-based competition assay; format: binding; details: for pIC50: competition with photoaffinity probe, in-gel fluorescence
T2 construct: His-SUMO-ENL (1-138); His (N); SUMO (N); made in house; host or cells: E. coli Rosetta
T2 sequence (Q03111 1-138): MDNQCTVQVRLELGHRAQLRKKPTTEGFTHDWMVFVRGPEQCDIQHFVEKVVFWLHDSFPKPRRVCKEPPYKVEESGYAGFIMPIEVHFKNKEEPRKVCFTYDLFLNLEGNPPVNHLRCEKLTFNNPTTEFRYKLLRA

GAS41 YEATS domain = biological target: T3, GAS41 YEATS domain (Homo sapiens, UniProt O95619); assay: Photo-cross-linking-based competition assay; format: binding; details: competition with photoaffinity probe, in-gel fluorescence
T3 construct: His-Gas41 (15-159); His (N); made in house; host or cells: E. coli Rosetta
T3 sequence (O95619 15-159): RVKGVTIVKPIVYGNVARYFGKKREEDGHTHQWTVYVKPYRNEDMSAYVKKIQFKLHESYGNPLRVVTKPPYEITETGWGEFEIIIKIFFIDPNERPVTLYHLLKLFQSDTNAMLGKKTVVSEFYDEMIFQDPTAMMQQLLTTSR
Procedure: (§1) Peptides were synthesized on a Rink-Amide MBHA resin followed by a standard Fmoc-based solid-phase peptide synthesis protocol. After all amino acids were coupled, protecting groups and cleavage of peptides from the resin were done by incubating the resin with a cleavage cocktail containing 95% trifluoroacetic acid, 2.5% triisopropylsilane, 1.5% H2O and, 1% thioanisole for 2 h. Peptides were purified by preparative HPLC with an XBridge Prep OBDTM C18 column (30 mm×250 mm, 10 μm, Waters). Mobile phase used were water with 0.1% trifluoroacetic acid (buffer A) and 90% acetonitrile in water with 0.1% trifluoroacetic acid (buffer B). The purity (>95%) and identity of peptides were confirmed by LC-MS. The inhibitory activities of the inhibitors were determined by a photo-cross-linking-based competition assay.
(§2) The probe 4.1 or 4.2 (2 μM) with indicated concentrations of different inhibitors was incubated with YEATS domain proteins (5 or 20 ng/μL) in binding buffer (50 mM HEPES, 150 mM NaCl, 2 mM MgCl2, 0.1% Tween-20, 20% glycerol, pH 7.5, with or without 50 ng/μL BSA) for 10 min at 4° C. Then, the samples were irradiated at 365 nm using a UV lamp for 20 min in a 96-well plate on ice.
(§3) To the prepared photo-cross-linking samples, 100 μM Rho-N3 (10 mM stock in DMSO) was added, followed by 1 mM TCEP (freshly prepared 50 mM stock in H2O), 100 μM TBTA (10 mM stock in DMSO), and finally the reactions were initiated by the addition of 1 mM CuSO4 (freshly prepared 50 mM stock in H2O). The reactions were incubated for 1 h at r.t . . . . The reactions were quenched by adding 5 volumes of ice-cold acetone and placed at −20° C. overnight to precipitate proteins.
(§4) After protein precipitation, samples were centrifuged at 6000×g for 5 min at 4° C. The supernatant was discarded and the pellet was washed with ice-cooled methanol twice and air-dried for 10 min. The proteins were resuspended in 1×LDS sample loading buffer (Invitrogen) with 50 mM DTT, and heated at 80° C. for 8 min. Samples were then resolved by SDS-PAGE. The labeled proteins were visualized by scanning the gel on a Typhoon 9410 variable mode imager (excitation 532 nm, emission filter 580 nm).
(§5) A photo-cross-linking based method was used in this study to estimate inhibitory activity (FIG. 28). This method requires the use of a photoaffinity probe. The probe (probe 1 (SEQ ID NO:48), see below) is derived from a crotonylated peptide, ligand of the protein, carrying a photo-cross-linker and a terminal alkyne as bioorthogonal.
(§6) The YEATS domain is incubated and bound to the probe through Kcr-dependent recognition. Upon UV-irradiation, the photo-cross-linker is activated and rapidly cross-linked to the protein, converting the non-covalent protein-probe interaction into a covalent linkage. The probe-labeled protein is subsequently conjugated to an azide-functionalized fluorescence dye (for example, rhodamine-N3, Rho-N3) via Cu(I)-catalyzed azide-alkyne cycloaddition (CuAAC, or “click” chemistry). After SDS-PAGE, the protein can be visualized by in-gel fluorescence scanning. If photo-cross-linking of the YEATS domain with photoaffinity probe is performed in the presence of an inhibitor, which occupies the Kcr binding pocket of the YEATS domain and thus inhibits the protein-probe interaction, the percentage of the YEATS domain in the sample that is labeled by the probe will be reduced. The in-gel fluorescence intensity detected will also be decreased. By varying the concentration of inhibitor added in the sample and quantifying the resulting fluorescence intensities, a competition curve of the inhibitor toward the protein-probe interaction will be obtained, which can be used to estimate the IC50 value. Due to the covalent nature of photo-cross-linking, weak protein-protein interactions can be captured and eventually visualized. The protein concentration used in the assay can be as low as several nanograms per microliter, while the fluorescence signal can still be robustly detected and quantified. […]

YEATS2 domain = biological target: T4, YEATS2 domain (Homo sapiens, UniProt Q9ULM3); assay: Photo-cross-linking-based competition assay; format: binding; details: competition with photoaffinity probe, in-gel fluorescence
T4 construct: His-SUMO-YEATS2 (201-332); His (N); SUMO (N); made in house; host or cells: E. coli Rosetta
T4 sequence (Q9ULM3 201-332): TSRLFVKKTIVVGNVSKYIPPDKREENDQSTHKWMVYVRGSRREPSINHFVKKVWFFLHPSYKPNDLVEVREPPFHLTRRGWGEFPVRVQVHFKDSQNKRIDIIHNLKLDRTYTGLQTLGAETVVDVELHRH
Procedure: as §1, §2, §3, §4, §5, §6

ENL = biological target: T5, ENL (Homo sapiens, UniProt Q03111); assay: Cellular thermal shift assay (CETSA) in MOLM-13 (FLAG-ENL) cells; format: cell-based; details: MOLM13 (FLAG-ENL), 50 μM, 16 hours, anti-FLAG
T5 construct: expressed in transfected cells; host or cells: MOLM-13 (FLAG-ENL) cells
T5 sequence (Q03111 1-559): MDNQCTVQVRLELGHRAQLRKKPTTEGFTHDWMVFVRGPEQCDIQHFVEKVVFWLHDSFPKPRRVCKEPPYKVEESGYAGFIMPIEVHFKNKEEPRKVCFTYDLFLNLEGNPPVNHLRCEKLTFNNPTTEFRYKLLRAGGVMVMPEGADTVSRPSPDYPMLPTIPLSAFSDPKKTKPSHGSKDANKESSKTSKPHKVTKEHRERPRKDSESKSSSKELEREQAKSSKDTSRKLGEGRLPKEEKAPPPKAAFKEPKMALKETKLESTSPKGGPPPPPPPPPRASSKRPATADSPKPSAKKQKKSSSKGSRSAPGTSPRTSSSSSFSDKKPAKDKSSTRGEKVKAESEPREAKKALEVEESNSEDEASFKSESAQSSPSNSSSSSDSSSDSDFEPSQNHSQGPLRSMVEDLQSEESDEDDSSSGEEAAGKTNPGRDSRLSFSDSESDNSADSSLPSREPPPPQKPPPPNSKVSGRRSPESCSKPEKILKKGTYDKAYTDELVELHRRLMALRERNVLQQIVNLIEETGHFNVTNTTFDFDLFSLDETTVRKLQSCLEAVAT
Procedure: We next applied the cellular thermal shift assay (CETSA) to examine if XL-13m was cell permeable and could target ENL in living cells. MOLM-13 (FLAG-ENL) were treated with XL-13m for […] and then heated at different temperature to denature and precipitate proteins. […] Soluble proteins were extracted by freeze-thaw cycle and subjected to western blotting analysis.
MOLM13 (FLAG-ENL) cells were incubated with or without 50 μM compound for 16 hours and then were collected for cellular thermal shift assay (CETSA) as previously reported. Anti-FLAG antibody was used to detect ENL proteins and γ-actin blotting served as negative control.

AF9 YEATS domain [3] = biological target: T1, AF9 YEATS domain; assay: Isothermal titration calorimetry (ITC); format: binding; details: ITC
Procedure: (§7) ^1H and ^13C NMR spectra were recorded on Bruker UltraShield 400 or 600 MHz spectrometers and were calibrated using residual undeuterated solvent as an internal reference. Chemical shifts were reported in ppm, and coupling constant J was reported in Hz. Peptides were analyzed by LC-MS with an Agilent 1260 Infinity HPLC system connected to a Thermo Finnigan LCQ DecaXP MS detector. Peptides were purified on a preparative HPLC system with Waters 2535 Quaternary Gradient Module, Waters 515 HPLC pump, Waters SFO System Fluidics Organizer, and Waters 2767 Sample Manager. Photo-cross-linking was performed with an ENF-260C/FE hand-hang UV lamp (Spectroline). In-gel fluorescence scanning was performed using a Typhoon 9410 variable mode imager from GE Healthcare Life Sciences (excitation 532 nm, emission 580 nm). Images of Coomassie blue staining were acquired by MyECL Imager from Thermo Scientific. All images were processed by ImageJ software (National Institutes of Health), and contrast was adjusted appropriately. ITC experiments were performed with a MicroCal iTC200 titration calorimeter (MicroCal). IC50 and dissociation constants were fit with Origin 7.0 software package (OriginLab).
To further validate the reliability of the results obtained from the photo-cross-linking-based competition assay, we performed isothermal titration calorimetry (ITC) to determine the direct binding affinities of the inhibitors toward the AF9 YEATS domain. […] The ITC measurements were in agreement with the IC50 data, indicating the reliability of the results obtained from the photo-cross-linking-based competition assay.

ENL YEATS domain [4] = biological target: T2, ENL YEATS domain; assay: Isothermal titration calorimetry (ITC); format: binding
Procedure: as §7
The compound Cyclic 3 was also tested with AF9 and ENL YEATS domains.

Compound	pIC50 (AF9 YEATS domain [1])	pIC50 (ENL YEATS domain [2])	activity drop on ENL compared to AF9 (ENL YEATS domain [2]; ratio of IC50 values)	pIC50 (GAS41 YEATS domain)	pIC50 (YEATS2 domain)	activity on AF9 weaker than on ENL (AF9 YEATS domain [1]; ratio of IC50 values)	thermal shift: targeting of ENL protein in living cells (ENL)	pKd (AF9 YEATS domain [3])	pKd (ENL YEATS domain [4])
C[C@H](NC(=O)[C@@H](NC(=O)[C@H](CCC(N)=O)NC(=O)OCc1ccccc1)[C@@H](C)O)C(=O)N[C@@H](CCCNC(=N)N)C(=O)N[C@@H](CCCCNC(=O)c1ccco1)C(N)=O [Compound 26]	6.59	5.89	5 fold	3.91	4.37	–	–	–	–
C[C@H](NC(=O)[C@@H](NC(=O)[C@H](CCC(N)=O)NC(=O)OCc1ccccc1)[C@@H](C)O)C(=O)N[C@@H](CCCNC(=N)N)C(=O)N[C@@H](CCCCNC(=O)c1cnco1)C(N)=O [Compound 27]	6.62	–	–	4.84	4.01	–	–	–	–
CC(=O)N[C@@H](C)C(=O)N[C@@H](C)C(=O)N[C@@H](CCCNC(=N)N)C(=O)N[C@@H](CCCCNC(=O)c1cnco1)C(N)=O [Compound 40] (Ac-AARK(Oxazole(5-CO))-NH2)	–	–	–	–	–	6.1 fold	revealed the target of ENL protein	–	–
C[C@@H]1NC(=O)[C@H]([C@H](C)O)NC(=O)[C@@H](NC(=O)OCc2ccccc2)CCCCNC(=N)NCCC[C@H](C(=O)N[C@@H](CCCCNC(=O)c2cnco2)C(N)=O)NC1=O [Compound 80]	–	4.89	–	4.27	4.64	–	–	6.28	4.94
